Results from patent US12655174B2, “Adenosine A3 receptor agonists, preparation methods and uses thereof” (ZHEJIANG VIMGREEN PHARMACEUTICALS, LTD., priority 2020, dated 2026).

Assays:
[1] = target: T1, ADORA3 receptor (CHO cells stably expressing ADORA3 receptor) (Homo sapiens, UniProt P0DMS8); test: Effect of compound on intracellular cAMP level by adenosine A3 receptor agonism; type: cell-based; details: forskolin-stimulated
T1 construct: expressed in transfected cells
T1 sequence (P0DMS8 1-318): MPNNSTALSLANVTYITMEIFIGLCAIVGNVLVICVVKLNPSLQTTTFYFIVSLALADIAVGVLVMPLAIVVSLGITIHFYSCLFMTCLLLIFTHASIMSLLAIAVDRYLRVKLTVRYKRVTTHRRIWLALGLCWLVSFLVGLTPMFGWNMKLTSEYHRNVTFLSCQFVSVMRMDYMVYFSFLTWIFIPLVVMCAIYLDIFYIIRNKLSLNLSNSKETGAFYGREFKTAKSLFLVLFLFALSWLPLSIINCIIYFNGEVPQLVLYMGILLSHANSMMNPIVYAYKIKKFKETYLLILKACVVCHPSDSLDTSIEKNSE
Method in brief: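 Agonism read as change in forskolin-stimulated cAMP by TR-FRET competition (Eu-cAMP tracer, ULight anti-cAMP antibody). Compound tested as 10 three-fold dilutions on ADORA3-CHO cells in buffer containing rolipram, incubated at 37 °C. Hill fit of % activation against log concentration gives EC50.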

ADORA3 receptor = target: T2, ADORA3 receptor (Homo sapiens, UniProt P0DMS8); test: Agonistic effect on adenosine A3 receptor by FLIPR assay (calcium flux assay); type: cell-based; details: agonist mode
T2 sequence (P0DMS8 1-318): T1 sequence (P0DMS8 1-318)
Experimental: Example 27: Agonistic Effect of Compound on Adenosine A3 Receptor by FLIPR Assay (Calcium Flux Assay)
First Day: Cell Inoculation
• 1) With regard to ADORA3 receptor, cultured cells were used for inoculation: the culture medium was aspirated and the cells were washed twice with 10 mL of DPBS. 2 mL of 0.05% EDTA-trypsin was added and the cells were incubated at 37° C. for 1 minute. Then 10 mL of the culture medium was added to stop the digestion and the cell suspension was transferred to a 50-mL tapered tube. • 2) The 50-mL tapered tube containing the various cells was centrifuged at 300 g for 5 minutes. • 3) A supernatant was aspirated and no cells should be aspirated. • 4) The cell precipitate was resuspended in 6-8 mL of the culture medium, and then 0.5 mL of the cells were taken out for cell counting by using a Vi-cell XR cell viability analyzer. • 5) The cell suspension was diluted to 1×10^6 cells/mL (20 μL of 20,000 cells per well) in the culture medium and the cells were inoculated into a cell plate (384-well Poly-D-lysine protein-coated plate, Greiner-781946). • 6) The plate was placed in a 37° C./5% CO2 incubator for 16-20 hours. Second Day: • 1) Preparation of 2×Fluo-4 Direct™ uptaking dye • a. Preparation of probenecid solution • 1 mL of FLIPR assay buffer was added to 77 mg of probenecid (provided by Fluo-4 Direct™ calcium assay kit) to be prepared into 250 mM of a probenecid solution. The fresh probenecid solution was used daily. • b. 2×(8 μM) Fluo-4 Direct™ loading dye (per 10 mL)
A vial of the Fluo-4 Direct™ crystal was thawed and then 10 mL of the FLTPR analytical buffer was added to the vial. Then 0.2 mL of 250 mM of a probe solution was added to every 10 mL Fluo-4 Direct™ crystal to a final assay concentration of 2.5 mM. The solution was vortexed and stood for >5 min at a dark place. 2×Fluo-4 Direct™ uptaking dye was freshly prepared daily. • 2) Compound preparation • a. Preparation of compound plate: all reference and test compounds were serially diluted 4-fold in 10 points by using an Echo liquid processor and then 900 nL of the diluted compounds were transferred to a compound plate. • b. 30 μL FLIPR analytical buffer was added to the compound plate and the plate was centrifuged at 300 g for 1 minute. • 3) FLIPR analysis • a. With regard to ADORA3 receptor: firstly, the cell plate was taken out from a culture box. The culture medium was then aspirated and 20 μL of the FLIPR analytical buffer was added. The cell plate was placed in an incubator for 45 minutes and at a room temperature for 15 minutes. • b. To run an experimental solution on […], 10 μL of the FLIPR analytical buffer was transferred from the compound plate to a cell plate, and then the fluorescent signal was read. Then 10 μL of a compound solution was transferred from the compound plate to the cell plate and the fluorescence signal was read. “Max−min” was calculated from Reader 91 to an allowed maximum value. • c. With regard to agonist: activation %=(RLU−LC)/(HC−LC)*100, • wherein RLU=relative light unit, allowed maximum signal was 91; HC=average signal of high concentration agonist; and LC=mean signal of DMSO well. • d. Data were fitted to a model “log (agonist) versus response-variable slope” by using GraphPad Prism 5 to determine an EC50 value. • e. […] 2. Test Result

[2] = Pharmacokinetic test of compound in SD rat; type: in vivo; details: SD rats, intragastric administration (IG), cassette dosing
Experimental: Example 28: Pharmacokinetic Test of Compound in SD Rat
The animal species used in this experiment were SD rats. There were 3 animals per group. The rats were dosed in cassette format, i.e., multiple (1-6) different compounds were dosed simultaneously to the same group of the SD rats. The vehicle used for the drug was 5% DMSO+5% Solutl+90% ([…] methylcellulose M450), and the administration route was intragastric administration (IG).

EC50 [1] [nM]	EC50 (ADORA3 receptor) [nM]	AUC_D [2] [kg·ng·h/mL/mg]	SMILES
3.27	71.4	986.00	CNC(=O)[C@H]1O[C@@H](n2cnc3c(NCc4cccc(Cl)n4)nc(-c4cncc(Cl)c4)nc32)[C@H](O)[C@@H]1O [compound 308]
< 0.51	4.05	1820.66	CNC(=O)[C@H]1O[C@@H](n2cnc3c(NCc4cc(C)ccn4)nc(-c4cncc(OC)c4)nc32)[C@H](O)[C@@H]1O [compound 312]
